Laboratory results published in patent US7579013B2, “Formulations for coated microprojections containing non-volatile counterions” (Alza Corporation, priority 2003, dated 2009).

Assay: Solubility in water
Assay type: physicochemical
Conditions: at pH about 5

CC[C@H](C)[C@H](NC(=O)[C@H](CCC(=O)O)NC(=O)[C@H](CO)NC(=O)[C@@H](NC(=O)[C@@H](N)CO)C(C)C)C(=O)N[C@@H](CCC(N)=O)C(=O)N[C@@H](CC(C)C)C(=O)N[C@@H](CCSC)C(=O)N[C@@H](Cc1cnc[nH]1)C(=O)N[C@@H](CC(N)=O)C(=O)N[C@@H](CC(C)C)C(=O)NCC(=O)N[C@@H](CCCCN)C(=O)N[C@@H](Cc1cnc[nH]1)C(=O)N[C@@H](CC(C)C)C(=O)N[C@@H](CC(N)=O)C(=O)N[C@@H](CO)C(=O)N[C@@H](CCSC)C(=O)N[C@@H](CCC(=O)O)C(=O)N[C@@H](CCCN=C(N)N)C(=O)N[C@H](C(=O)N[C@@H](CCC(=O)O)C(=O)N[C@@H](Cc1c[nH]c2ccccc12)C(=O)N[C@@H](CC(C)C)C(=O)N[C@@H](CCCN=C(N)N)C(=O)N[C@@H](CCCCN)C(=O)N[C@@H](CCCCN)C(=O)N[C@@H](CC(C)C)C(=O)N[C@@H](CCC(N)=O)C(=O)N[C@@H](CC(=O)O)C(=O)N[C@H](C(=O)N[C@@H](Cc1cnc[nH]1)C(=O)N[C@@H](CC(N)=O)C(=O)N[C@@H](Cc1ccccc1)C(=O)O)C(C)C)C(C)C [hPTH(1-34)]
solubility in water (concentration): > 20%
